{"source": "patent US20230279379A1", "about": "“METHODS AND MICROFLUIDIC DEVICE FOR PRODUCING EXTRACELLULAR VESICLES” (THE BOARD OF TRUSTEES OF THE UNIVERSITY OF ILLINOIS, priority 2022, published 2023)", "system": "Primary human MSCs", "experiment": "EV secretion per cell from MSCs on hydrogel substrates, nanoparticle tracking analysis", "type": "cell-based", "conditions": "for EV secretion vs vehicle: 3 μM MnCl2 during and after adhesion, elastic alginate-RGD hydrogels, soft and stiff", "experimental": "Cell Seeding on Hydrogels. Hydrogel discs were placed in ultra-low binding polystyrene well plates (Corning) to ensure cells attach to hydrogels and not the plate surface. Hydrogels were washed with Hank's buffered salt solution (HBSS, Thermo Fisher Scientific) for at least 3 days before seeding cells. Cells were seeded at a low density (25 cells/mm^2). After seeding, hydrogels were washed thoroughly to remove unattached cells. Drug treatments of 3 μM MnCl2 (Thermo Fisher Scientific), 200 nM EMD 121974 sold under the tradename Cilengitide® (Cayman) and 5 μM CK869 (Cayman) were applied during and after cell adhesion to substrates. To evaluate the number of live cells seeded on substrates, cells were detached by incubating with a natural enzyme mixture with proteolytic and collagenolytic enzyme activity sold under the tradename ACCUTASE® Cell Detachment Solution (Innovative Cell Technologies, Inc.) for 10 minute at 37° C. Cells were then washed by centrifugation and directly added to HBSS containing calcein AM (1:2000; Biotium), ethidium bromide (1:2000; Thermo Fisher Scientific), and a predefined number of allophycocyanin (APC) beads (BD). After incubation at room temperature (RT) for 10 minutes, the samples were analyzed for live and dead cell number by flow cytometry.\nParticle Size and Number Characterization. Particle size and number were obtained using Nanoparticle Tracking Analysis 3.2 (NTA) via NanoSight NS300 (Malvern) using a 405 nm laser. Samples were introduced by syringe pump at a rate 100 μL/min. Three thirty-second videos were acquired using camera level 14 followed by detection threshold 7. Camera focus, shutter, blur, minimum track length, minimum expected particle size and maximum jump length were set automatically by the software. Samples were diluted as needed to maintain particles per video from 100-2000. To ensure specificity, all samples were tested as compared to appropriate blank conditions.\nTo test the effect of substrate mechanics on EV secretion from MSCs, hydrogel substrates were engineered which were composed of alginate polymer conjugated with the cell adhesion peptide Arg-Gly-Asp (RGD) that binds primarily to αvβ3 and α5β1 integrins. Alginate-RGD hydrogels can be formed either covalently through adipic acid dihydrazide or physically through divalent cations, resulting in elastic or stress-relaxing hydrogels, respectively. For both types of hydrogels, elastic modulus (Young's modulus, E) of ˜3 kPa ‘soft’ and E ˜20 kPa ‘stiff’ were considered values that represent a physiologically relevant range of substrate elasticity for MSC mechanosensing, while E is ˜0.1 GPa for conventional plastic substrates. Primary human bone marrow MSCs were allowed to adhere to substrates for 24 hours followed by washout and collection of the serum-free conditioned medium from MSCs after 24 hours. After centrifugation of the medium at 10,000 g to remove cell, apoptotic, and larger particle fractions, particles remaining in the medium were analyzed by nanoparticle tracking analysis and normalized to the number of live adhered cells counted by flow cytometry (see Methods). MSCs were seeded at low density (˜25 cells/mm^2) to avoid potential effects from cell-cell interactions. […] Thus, focus was placed on the EVs remaining in the supernatant after the 10,000 g centrifugation. For these EVs, the particle size distribution remained similar across different substrates with median diameter ˜120 nm (FIG. 1B). […] Moreover, EVs from different substrates expressed similar levels of late endosomal markers CD63 and CD9. Importantly, levels of ribosomal RNA (rRNA) in particle preparations were similar across hydrogels or plastic substrates, and rRNA as a percentage of total RNA was lower than that found in untreated MSCs or particles derived from H2O2-treated apoptotic MSCs, ruling out apoptosis as a potential factor of increased EV secretion on the soft hydrogel. […]", "note": "Entries after “also recorded” stand apart in the source; their conditions may differ. Where no end group is shown, it is not given here."}
{"molecule": "CC(C)[C@H]1C(=O)N[C@@H](CCCN=C(N)N)C(=O)NCC(=O)N[C@@H](CC(=O)O)C(=O)N[C@H](Cc2ccccc2)C(=O)N1C", "note": "[EMD 121974]", "values": [{"measurement": "EV secretion", "setting": "200 nM EMD 121974 during and after adhesion, soft and stiff hydrogels", "result": "significantly increased EV secretion on both soft and stiff hydrogels; also recorded: enhances EV secretion"}]}
{"molecule": "[Cl][Mn][Cl]", "note": "[MnCl2]", "values": [{"measurement": "EV secretion vs vehicle", "result": "inhibits EV secretion"}, {"measurement": "EV secretion vs vehicle", "setting": "listed as Mn^2+", "result": "decreased to a greater extent on the soft hydrogel than the stiff hydrogel"}]}
{"molecule": "Cc1ccc2c(c1)C(=O)C1(O)CCN(c3ccccc3)C1=N2", "note": "(stereo not drawn) [blebbistatin]", "values": [{"measurement": "exosome secretion", "setting": "50 μM blebbistatin, soft or stiff elastic alginate-RGD hydrogels", "result": "did not impact exosome secretion"}]}
{"molecule": "RGD: cell adhesion peptide, amino acid sequence GGGGRGDSP (SEQ ID NO:1), conjugated to hydrogel (also: conjugated to hydrogel)", "values": [{"measurement": "EV secretion on decreasing the amount of RGD conjugated in hydrogels", "setting": "FIG. 5", "result": "significantly increases EV secretion"}, {"measurement": "increase in EV secretion per cell", "setting": "decreasing RGD concentration from 0.8 to 0.16 mM, both soft and stiff hydrogels", "result": "~2", "unit": "fold"}]}
